From patent US20060069064A1, “Methods for facilitating recovery of functions of endogenous or implanted or transplanted stem cells using hyaluronic acid” (priority 2003, published 2006) come the findings set out here.

The structures appear in SMILES notation.

Data set [1] relates to 5-FU-treated mice. The data set can be described thus: Bone marrow hematopoiesis in 5-FU-treated mice (cell counts, morphological analysis). Type of data set: in vivo. The settings on record: 7 days after 5-FU 150 mg/kg i.p.; 15.3±2.2 before. How it is done: Because mature blood cells are a product of proliferation and differentiation of hematopoietic progenitors, we next examined the effect of HA on bone marrow hematopoiesis in 5-FU-treated mice. 5-FU-treated mice (day 0) were administered PBS or 100 μg/mouse HA (as a 0.05%solution in PBS) on day 4, 6, 10, and 13. Bone marrow cells were harvested on days 7, 14, 21, and 28. On day 7 the total number of bone marrow cells in the HA-treated mice was 3.5-fold higher in comparison to the PBS-treated mice (FIG. 2A). To evaluate the effect of HA on different hematopoietic lineages, a morphological analysis of the bone marrow cells was performed as followed. […]
To examine this assumption, bone marrow cells were cultured in methylcellulose to evaluate the number of proliferating lineage-committed progenitors. […] Colonies containing more then 20 cells were counted under the inverted microscope after 7 days of culture. […] Colonies containing at least 500 cells were counted after 14 days. […] We next investigated whether HA stimulation benefited the pool of committed progenitors at the cost of damaging more primitive progenitors that were measured by using a long-term culture-initiating cells (LTC-IC) assay. The number of LTC-IC in the bone marrow of mice treated with HA was evaluated using a limited dilution assay. […]

Data set [2] has as its system 5-FU-treated mice. The settings on record: mouse, in vivo. As to the method: 5-FU was intraperitoneally injected in mice at 150 mg/kg. The counts of white blood cells (WBC), red blood cells (RBC), platelets (PLT), hemoglobin (HGB) and hematocrit (HCT) were monitored daily for two weeks. As expected, the treatment of mice with 5-FU induced severe bone marrow hypoplasia and pancytopenia. The numbers of WBC and PLT dropped from 8.4±1.5×10^6/ml and 678.4±82×10^6/ml before 5-FU administration to 2.52±0.5×10^6/ml and 388±50×10^6/ml, respectively, 7 days later (FIGS. 1A, B). The total number of mononuclear cells in the bone marrow decreased from 15.3±2.2×10^6/femur before to 5.00±0.65×10^6/femur 7 days after 5-FU administration (FIG. 2A). All parameters were recovered to normal in 14 days after 5-FU administration. To examine the effect of HA on 5-FU-perturbed hematopoiesis, 5-FU-treated (day 0) mice were administered 100 μg/mouse HA as a 0.05% solution in PBS (HA from Sigma-Aldrich, Catalog No.: H1751) on days 4, 6, 10, and 13. A control group of animals was treated with a 200-μl injection of PBS. The peripheral blood from HA- and PBS-treated mice was collected daily and examined for numbers of WBC, RBC, PLT, HGB, and HCT. […] The number of PLT in HA-treated mice was increased starting from day 5 and was elevated by a factor of 1.7 on day 8 (FIG. 1B). […]

For `O=c1[nH]cc(F)c(=O)[nH]1` [5-FU, 5-fluorouracil], in the data set on 5-FU-treated mice [1], the “total number of mononuclear cells in the bone marrow” value is listed as 5.00±0.65 ×10^6/femur. Besides, the “time until all parameters recovered to normal after 5-FU administration” value in the data set on 5-FU-treated mice [2] is 14 days.
